# Patent publication US11976063B2, “Pharmaceutical composition comprising berberine and ursodeoxycholic acid for the treatment of various diseases or disorders” (priority 2014, dated 2024)
# Tests used:
# [1] = system: high fat diet (HFD) induced non-alcoholic fatty liver mice; assay: High fat diet induced non-alcoholic fatty liver mice model (Example 5); assay type: in vivo, NIH male mice; details: for Body weight / Weight ratio of liver / ALT / AST / HDL-C / LDL-C / MDA / SOD / TC / TG: i.g. once daily, HFD, mean ± S.E.M; for ALT / AST / HDL-C / LDL-C / MDA / SOD / TC / TG: serum
# Description: This example describes an in vivo efficacy study of BUDCA disclosed in the present invention using a high fat diet (HFD) induced non-alcoholic fatty liver mice model.
# 91 NIH male mice of 4 weeks old were obtained from Vital River Laboratories (Beijing, China). After acclimatization for one week, 13 mice were selected as control group (Group 1, G1) with normal chow diet fed, and the other 78 mice were fed with HFD (in which 40% of calories is from fat) for 4 weeks to establish an animal model resembling the pathophysiology of non-alcoholic fatty liver in human.
# Following 4 weeks of high fat dietary intervention, the 78 mice were divided into 6 groups according to body weight (n=13 per group): • Group 2, G2: Vehicle control (0.5% CMC-Na solution) • Group 3, G3: Low-dose group of BUDCA (30 mg/kg) • Group 4, G4: Middle-dose group of BUDCA (100 mg/kg) • Group 5, G5: High-dose group of BUDCA (300 mg/kg) • Group 6, G6: BBR control group (Berberine HCl, 150 mg/Kg) • Group 7, G7: UDCA control group (Ursodeoxycholic acid, 150 mg/Kg)
# The mice from G2 to G7 were administered with the corresponding testing articles indicated above once daily by intragastric gavage. HFD continued throughout the duration of the treatment of 6 weeks. The normal mice (G1) were treated with vehicle (0.5% CMC-Na solution) via intragastric gavage. At the end of experiment, the following biochemical parameters were measured and tests were carried out: • Body weight, the weight ratio of liver • Total cholesterol (TC) and triglyceride (TG) levels, high density lipoprotein cholesterol (HDL-C) and low density lipoprotein cholesterol (LDL-C) levels • Alanine aminotransferase (ALT) and aspartate aminotransferase (AST) levels • Superoxide dismutase (SOD) activity and malondialdehyde (MDA) level • Oral glucose tolerance test (OGTT) • Histopathological examination of liver ([…] staining)
# After 6 weeks treatment, blood was collected via retro-orbital bleeding of each 12-hour fasted animal. Liver was harvested by surgery for histopathology analysis after weight measurement. Then the serum was isolated for the determination of TC, TG, HDL-C, LDL-C, ALT, AST, SOD and MDA.
# One week before sacrifice (Week 5 of treatment), an oral glucose tolerance test (OGTT) was performed in 12-hour fasted animals. For the OGTT, all mice received an oral glucose challenge at 2.0 g/Kg and the blood glucose concentrations were determined by glucometer (ACCU-CHEK Active, Roche) at 0, 30, 60, 90 and 120 min.
# The liver tissue was histopathologically evaluated by […] staining after frozen section.
# [2] = system: high fat diet (HFD) induced fatty liver golden hamster; assay: High fat diet-induced fatty liver golden hamster model (Example 6); assay type: in vivo, golden hamsters; details: for Serum TC level on Day 0 / Serum TG level on Day 0: Day 0 (before treatment); for Serum TC level on Day 0 / Serum TG level on Day 0 / Serum TC level, Week 1 / Serum TG level, Week 1 / Serum TC level, Week 3 / Serum TG level, Week 3 / Serum TC level, Week 5 / Serum TG level, Week 5 / Serum TC level, Week 7 / Serum TG level, Week 7: X ± s, n = 8
# Description: This example describes an in vivo efficacy study of BUDCA salt disclosed in the present invention using a high fat diet (HFD) induced fatty liver golden hamster model.
# Forty-two SPF golden hamsters with the body weight of 90-100 g were acquired from Vital River Laboratory Animal Technology Co., Ltd. After acclimatization for one week, eight hamsters were selected as normal control group (Group 1), which were fed with normal chow diet. The rest thirty-four hamsters were fed with HFD for two weeks to establish a fatty liver animal model resembling the pathophysiology of NAFLD in human.
# For the thirty-four hamsters induced with HFD, twenty-four of them with TC level of 17.96±1.70 mmol/L at the fourteenth day post of HFD were selected and randomized into three groups (n=8 per group): • Group 2: Model control (0.5% tragacanth solution 10 ml/kg); • Group 3: Low-dose (BUDCA 50 mg/kg); • Group 4: High-dose (BUDCA 200 mg/kg)
# The hamsters from Group 2 to 4 were treated with corresponding testing articles indicated above once a day by intragastric gavage, and HFD continued throughout the duration of the 7-week administration. The normal hamsters in Group 1 were treated with 0.5% tragacanth solution (10 ml/kg) by intragastric gavage. Serum lipid and blood glucose level, liver function index, food intake and body weight were measured throughout the study. After the 7-week administration, the hamsters were sacrificed and dissected for the general observation and histopathological analysis of liver tissue.
# [3] = BUDCA 50 mg/kg i.g. once a day, Week 1
# [4] = BUDCA 200 mg/kg i.g. once a day, Week 1
# [5] = BUDCA 200 mg/kg i.g. once a day
# [6] = both high-dose and low-dose group, P<0.01, FIG. 16
# [7] = both medicated groups, P<0.01, FIG. 22
structure (smiles),measurement,setting,value
"COc1ccc2cc3[n+](cc2c1OC)CCc1cc2c(cc1-3)OCO2.C[C@H](CCC(=O)[O-])[C@H]1CC[C@H]2[C@@H]3[C@@H](O)C[C@@H]4C[C@H](O)CC[C@]4(C)[C@H]3CC[C@]12C [BUDCA, berberine ursodeoxycholate]",Body weight,"[1]; BUDCA 30 mg/kg (G3), 6 weeks",40.3 ± 1.18 g
same,Weight ratio of liver,"[1]; BUDCA 30 mg/kg (G3), 6 weeks",4.33 ± 0.13%
same,Body weight,"[1]; BUDCA 100 mg/kg (G4), 6 weeks",41.7 ± 1.59 g
same,Weight ratio of liver,"[1]; BUDCA 100 mg/kg (G4), 6 weeks",4.15 ± 0.09%
same,Body weight,"[1]; BUDCA 300 mg/kg (G5), 6 weeks",41.5 ± 1.16 g
same,Weight ratio of liver,"[1]; BUDCA 300 mg/kg (G5), 6 weeks",4.27 ± 0.10%
same,Effect on symptoms of non-alcoholic fatty liver (overall efficacy),"[1]; BUDCA 30-300 mg/kg, berberine or ursodeoxycholic acid monotherapy 150 mg/Kg, 6 weeks",dose-dependently ameliorated symptoms of non-alcoholic fatty liver
same,Gastrointestinal side effects at the time of sacrifice,"[1]; BUDCA treated animals, 6 weeks i.g.",no gastrointestinal side effects were observed
same,ALT,"[1]; BUDCA 30 mg/kg (G3), 6 weeks",30.6 ± 4.37 U/L
same,AST,"[1]; BUDCA 30 mg/kg (G3), 6 weeks",148.3 ± 7.15 U/L
same,HDL-C,"[1]; BUDCA 30 mg/kg (G3), 6 weeks",2.33 ± 0.15 mmol/L
same,LDL-C,"[1]; BUDCA 30 mg/kg (G3), 6 weeks",1.05 ± 0.09 mmol/L
same,MDA,"[1]; BUDCA 30 mg/kg (G3), 6 weeks",12.34 ± 2.89
same,SOD,"[1]; BUDCA 30 mg/kg (G3), 6 weeks",61.05 ± 11.59 U/mL
same,TC,"[1]; BUDCA 30 mg/kg (G3), 6 weeks",5.49 ± 0.25 mmol/L
same,TG,"[1]; BUDCA 30 mg/kg (G3), 6 weeks",1.18 ± 0.20 mmol/L
same,ALT,"[1]; BUDCA 100 mg/kg (G4), 6 weeks",29.0 ± 3.95 U/L
same,AST,"[1]; BUDCA 100 mg/kg (G4), 6 weeks",140.2 ± 16.32 U/L
same,HDL-C,"[1]; BUDCA 100 mg/kg (G4), 6 weeks",2.26 ± 0.22 mmol/L
same,LDL-C,"[1]; BUDCA 100 mg/kg (G4), 6 weeks",1.06 ± 0.11 mmol/L
same,MDA,"[1]; BUDCA 100 mg/kg (G4), 6 weeks",8.02 ± 1.08 µM
same,SOD,"[1]; BUDCA 100 mg/kg (G4), 6 weeks",91.83 ± 4.90 U/mL
same,TC,"[1]; BUDCA 100 mg/kg (G4), 6 weeks",5.28 ± 0.50 mmol/L
same,TG,"[1]; BUDCA 100 mg/kg (G4), 6 weeks",0.92 ± 0.06 mmol/L
same,ALT,"[1]; BUDCA 300 mg/kg (G5), 6 weeks",27.8 ± 3.08 U/L
same,AST,"[1]; BUDCA 300 mg/kg (G5), 6 weeks",163.5 ± 11.63 U/L
same,HDL-C,"[1]; BUDCA 300 mg/kg (G5), 6 weeks",2.48 ± 0.15 mmol/L
same,LDL-C,"[1]; BUDCA 300 mg/kg (G5), 6 weeks",1.03 ± 0.22 mmol/L
same,MDA,"[1]; BUDCA 300 mg/kg (G5), 6 weeks",7.78 ± 1.66 µM
same,SOD,"[1]; BUDCA 300 mg/kg (G5), 6 weeks",97.54 ± 4.88 U/mL
same,TC,"[1]; BUDCA 300 mg/kg (G5), 6 weeks",5.95 ± 0.54 mmol/L
same,TG,"[1]; BUDCA 300 mg/kg (G5), 6 weeks",0.85 ± 0.06 mmol/L
same,Dose dependence of the effects,"[2]; 50 vs 200 mg/kg, 7 weeks",relatively dose-dependent
same,Serum TC level on Day 0,[2]; BUDCA 50 mg/kg group,18.14 ± 1.13 mmol/L
same,Serum TG level on Day 0,[2]; BUDCA 50 mg/kg group,5.97 ± 1.19 mmol/L
same,"Serum TC level, Week 1",[2]; [3],9.33 ± 1.52 mmol/L
same,"Serum TG level, Week 1",[2]; [3],3.60 ± 0.78 mmol/L
same,"Serum TC level, Week 3",[2]; BUDCA 50 mg/kg i.g. once a day,7.58 ± 2.01 mmol/L
same,"Serum TG level, Week 3",[2]; BUDCA 50 mg/kg i.g. once a day,2.98 ± 1.31 mmol/L
same,"Serum TC level, Week 5",[2]; BUDCA 50 mg/kg i.g. once a day,10.50 ± 2.89 mmol/L
same,"Serum TG level, Week 5",[2]; BUDCA 50 mg/kg i.g. once a day,4.51 ± 3.10 mmol/L
same,"Serum TC level, Week 7",[2]; BUDCA 50 mg/kg i.g. once a day,9.78 ± 2.58 mmol/L
same,"Serum TG level, Week 7",[2]; BUDCA 50 mg/kg i.g. once a day,3.88 ± 1.21 mmol/L
same,Serum TC level on Day 0,[2]; BUDCA 200 mg/kg group,18.18 ± 1.10 mmol/L
same,Serum TG level on Day 0,[2]; BUDCA 200 mg/kg group,6.31 ± 1.75 mmol/L
same,"Serum TC level, Week 1",[2]; [4],7.51 ± 0.71 mmol/L
same,"Serum TG level, Week 1",[2]; [4],3.00 ± 0.67 mmol/L
same,"Serum TC level, Week 3",[2]; [5],6.75 ± 1.00 mmol/L
same,"Serum TG level, Week 3",[2]; [5],2.68 ± 1.09 mmol/L
same,"Serum TC level, Week 5",[2]; [5],5.38 ± 1.24 mmol/L
same,"Serum TG level, Week 5",[2]; [5],3.04 ± 1.68 mmol/L
same,"Serum TC level, Week 7",[2]; [5],4.95 ± 0.84 mmol/L
same,"Serum TG level, Week 7",[2]; [5],1.90 ± 0.66 mmol/L
same,AI value (arterial stiffness index) vs model control group,[2]; [6],significantly decreased
same,Serum LDL-c level vs model control group,[2]; [6],significantly decreased
same,Value of TC/HDL-c vs model control group,[2]; [6],significantly decreased
same,TC level vs model control group,"[2]; both low-dose (50 mg/kg) and high-dose (200 mg/kg) group, P<0.01",significantly declined
same,Food intake vs model control group,"[2]; both medicated groups (50 and 200 mg/kg), P>0.05",no significant difference on food intake
same,Serum AST level vs model control group,"[2]; both medicated groups, after 7-week administration, P<0.01, FIG. 17",significantly declined
same,Serum ALT level vs model control group,"[2]; both medicated groups, after 7-week administration, P<0.01, FIG. 18",significantly declined
same,Color of livers vs model control group,"[2]; both medicated groups, FIG. 20",improved
same,Liver weight vs model control group,"[2]; both medicated groups, P<0.01, FIG. 19",significantly decreased
same,Content of TC and TG in liver vs model control group,"[2]; both medicated groups, P<0.01, FIG. 21",significantly decreased
same,Inflammation score of liver tissue vs model control group,[2]; [7],significantly decreased
same,Positive area for oil red vs model control group,[2]; [7],significantly decreased
same,"TG level vs model control group, Week 1 and Week 7","[2]; high-dose group (200 mg/kg), Week 1 and Week 7, P<0.01",significantly declined
same,"Serum LDL-c level, value of TC/HDL-c and AI value compared with normal control group","[2]; high-dose group (200 mg/kg), after 7-week administration",very similar to those of normal control group
same,HDL-c level vs model control group,"[2]; high-dose group (200 mg/kg), P<0.01",significantly declined
same,"Body weight, first week of treatment","[2]; high-dose group (200 mg/kg), P<0.05",significantly reduced in the first week of treatment
same,"Body weight, rest time of treatment","[2]; high-dose group (200 mg/kg), P>0.05",no significant changes were observed in the rest time of treatment
same,Color of livers,"[2]; high-dose group (200 mg/kg), similar to normal control group",ruddy
same,Body weight vs model control group,"[2]; low-dose and high-dose group, at sacrifice, P>0.05",no significant change observed
same,"TG level vs model control group, Week 1","[2]; low-dose group (50 mg/kg), Week 1, P<0.01",significantly declined
same,Body weight throughout the study,"[2]; low-dose group (50 mg/kg), P>0.05",No significant changes were observed
